This passage reports AC50 and EC50 results from ChEMBL document CHEMBL1201862, “PubChem BioAssay data set” (2004).

Activity calls are given as the source filed them.

For one data set, the target named is Cytochrome P450 2C19 (Homo sapiens, UniProt P33261). The experiment in a line: Cytochrome panel assay with activity outcomes. Panel member name: p450-cyp2c19 Compounds with AC50 equal or less than 10 uM are considered active. Format: functional.
The target in another data set is T1, Cytochrome P450 1A2 (Homo sapiens, UniProt P05177).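 Further: PubChem cytochrome P450 panel assay, CYP1A2 panel member.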
T1 sequence (P05177 whole entry): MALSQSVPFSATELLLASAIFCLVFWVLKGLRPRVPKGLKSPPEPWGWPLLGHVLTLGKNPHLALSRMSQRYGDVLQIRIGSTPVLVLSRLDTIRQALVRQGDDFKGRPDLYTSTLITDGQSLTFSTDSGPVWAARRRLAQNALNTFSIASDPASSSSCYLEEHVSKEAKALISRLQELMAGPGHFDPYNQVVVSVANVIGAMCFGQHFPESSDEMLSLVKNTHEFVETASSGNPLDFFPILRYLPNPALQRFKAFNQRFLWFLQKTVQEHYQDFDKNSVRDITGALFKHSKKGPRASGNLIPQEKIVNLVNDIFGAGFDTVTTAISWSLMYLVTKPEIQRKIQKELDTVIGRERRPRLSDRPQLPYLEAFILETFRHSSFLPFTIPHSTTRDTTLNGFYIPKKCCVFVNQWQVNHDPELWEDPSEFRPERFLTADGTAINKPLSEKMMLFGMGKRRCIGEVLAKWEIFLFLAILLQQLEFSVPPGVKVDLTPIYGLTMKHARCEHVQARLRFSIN

The target of another data set is Cytochrome P450 3A4 (Homo sapiens, UniProt P08684).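 Further: CYP3A4 tested as one member of a cytochrome P450 panel screen.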
Chain of Cytochrome P450 3A4 (P08684 whole entry): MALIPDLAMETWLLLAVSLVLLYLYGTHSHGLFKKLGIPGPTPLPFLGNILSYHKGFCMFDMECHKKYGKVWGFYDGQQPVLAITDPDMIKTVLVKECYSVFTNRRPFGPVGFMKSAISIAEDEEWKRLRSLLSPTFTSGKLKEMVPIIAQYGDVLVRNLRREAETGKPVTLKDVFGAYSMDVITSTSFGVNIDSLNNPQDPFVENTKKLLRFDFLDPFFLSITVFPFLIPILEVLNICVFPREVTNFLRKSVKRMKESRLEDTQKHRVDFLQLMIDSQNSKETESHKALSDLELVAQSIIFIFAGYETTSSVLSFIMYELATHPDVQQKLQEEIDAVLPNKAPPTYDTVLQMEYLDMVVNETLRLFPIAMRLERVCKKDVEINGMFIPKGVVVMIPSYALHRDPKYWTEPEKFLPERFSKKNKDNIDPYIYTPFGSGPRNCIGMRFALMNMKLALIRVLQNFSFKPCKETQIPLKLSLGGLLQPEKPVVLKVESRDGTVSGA
A further data set deals with Cytochrome P450 2C9 (Homo sapiens, UniProt P11712).
Chain of Cytochrome P450 2C9 (P11712 whole entry): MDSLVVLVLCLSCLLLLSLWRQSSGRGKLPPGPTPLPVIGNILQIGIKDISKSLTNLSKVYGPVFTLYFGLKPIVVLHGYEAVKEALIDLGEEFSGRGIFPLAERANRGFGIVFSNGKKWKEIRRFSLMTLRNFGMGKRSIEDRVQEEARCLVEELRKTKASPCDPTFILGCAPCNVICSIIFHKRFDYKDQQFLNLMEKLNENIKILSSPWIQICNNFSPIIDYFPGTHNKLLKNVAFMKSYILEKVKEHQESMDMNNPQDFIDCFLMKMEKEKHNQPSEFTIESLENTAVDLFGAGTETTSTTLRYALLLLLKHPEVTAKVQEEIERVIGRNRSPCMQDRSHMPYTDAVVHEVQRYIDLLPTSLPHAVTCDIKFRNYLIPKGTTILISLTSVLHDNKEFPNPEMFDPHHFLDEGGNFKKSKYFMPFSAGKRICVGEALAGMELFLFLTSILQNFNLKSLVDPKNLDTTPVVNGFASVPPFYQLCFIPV
The nature of data set [1]: cytotoxicity toward NIH3T3 fibroblasts, dose response, counter-screen, cell-based, ATP luminescence, mouse fibroblasts (AID 2010).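 Further: cells exposed to compound for about 90 hours before reading.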 Format: functional. For orientation: The purpose of a counterscreen is to sort out artefacts and off-target activity.
A short description of data set [2]: inhibitors of intracellular T. cruzi replication, confirmation, NIH3T3 host cells, beta-gal luminescence (AID 2044).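 Further: intracellular parasites grown in NIH/3T3 mouse fibroblasts as host cells; luminescent beta-galactosidase reporter signal from transgenic T. cruzi replicating inside host cells; inhibitors lower the luminescence signal.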 Format: functional, cell-based.

Chain of Cytochrome P450 2C19 (P33261 whole entry): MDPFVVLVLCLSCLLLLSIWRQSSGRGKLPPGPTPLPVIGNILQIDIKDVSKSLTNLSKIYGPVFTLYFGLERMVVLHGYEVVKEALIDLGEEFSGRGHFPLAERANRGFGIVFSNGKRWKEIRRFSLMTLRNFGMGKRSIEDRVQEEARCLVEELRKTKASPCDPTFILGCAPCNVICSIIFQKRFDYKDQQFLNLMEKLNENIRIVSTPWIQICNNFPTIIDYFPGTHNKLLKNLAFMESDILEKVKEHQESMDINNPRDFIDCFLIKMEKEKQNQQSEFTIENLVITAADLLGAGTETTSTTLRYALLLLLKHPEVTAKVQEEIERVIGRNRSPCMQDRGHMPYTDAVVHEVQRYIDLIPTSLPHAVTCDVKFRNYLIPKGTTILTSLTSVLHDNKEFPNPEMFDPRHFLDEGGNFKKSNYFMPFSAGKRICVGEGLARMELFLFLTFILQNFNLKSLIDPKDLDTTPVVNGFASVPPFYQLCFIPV

Broadly, the AC50 is the concentration at which the activity in the assay is half-maximal. Take `CO[C@@H]1COC(=O)[C@@H](CCSC)NC(=O)C/C=C\[C@@H](C)COC(=O)[C@H](C)NC(=O)C/C=C\[C@H]1C`: the AC50 result on Cytochrome P450 2C19 is on record as “inconclusive”.

Take `C[C@@H](C(=O)NCCc1c[nH]c2ccccc12)[C@H]1C[C@]1(C)[C@H](NC(=O)OCc1ccccc1)c1ccccc1`: at Cytochrome P450 1A2, the AC50 was 15.8 µM (inconclusive). In the case of `COc1ccc(-n2c(=O)c(-c3ccc(F)c(F)c3)nc3cncnc32)cc1`, the AC50 at Cytochrome P450 1A2 was 2.51 µM (inconclusive); at Cytochrome P450 3A4, 12.6 µM (inconclusive). For `Cc1cccc(-c2noc(-c3cc4ccccc4oc3=O)n2)c1`, on Cytochrome P450 2C19 (read-out: AC50), the AC50 was 0.562 µM (inconclusive). For the molecule `COc1ncc2nc(-c3ccc(Cl)cc3)c(=O)n(C[C@H]3CCCO3)c2n1`, at Cytochrome P450 2C9, the AC50 was 25.1 µM (inconclusive).

The EC50 is the midpoint of the concentration-response curve. As for `COc1cccc(N2C(C(C)=O)=NN(c3ccccc3)C2c2ccc(N3CCOCC3)cc2)c1` (centres undefined), the EC50 in data set [1] is > 30 µM (not active); in data set [2], 1.49 µM (active). On to `CCOc1c(OC(C)=O)ccc(/C=C2\N=C(SCC)SC2=O)c1[N+](=O)[O-]`, for which the AC50 at Cytochrome P450 3A4 was 39.8 µM (inconclusive). Turning to `COc1cc(OC)nc(NC(C)=O)n1`, on Cytochrome P450 1A2, the AC50 was 28.2 µM (inconclusive). For the molecule `Cc1ccc2ccccc2c1CSc1nc(N)nc2c1ncn2CC(C)C`, the AC50 at Cytochrome P450 2C9 is 7.94 µM (inconclusive). Turning to `Cc1nnc(O)nc1NCc1ccccc1Cl`, at Cytochrome P450 3A4, the AC50 is 39.8 µM (inconclusive). Consider `Clc1ccc(SCc2cc(-c3ccccc3)no2)cc1`, for which, on Cytochrome P450 2C9, the AC50 is 4.47 µM (inconclusive). `Cc1ccccc1NC(=S)NC(=O)c1cc(-c2ccccc2)nc2ccccc12`: the AC50 at Cytochrome P450 3A4 is 3.16 µM (inconclusive).

Regarding `Cc1ccc(C)c(Oc2ccc(S(=O)(=O)N3CCN(C)CC3)cn2)c1`, the EC50 in data set [1] was > 60 µM (not active); in data set [2] it was 1.14 µM (active).

Consider `COCCNc1ccnc(-c2ccccc2C)n1`, for which the half-maximal activity concentration (AC50) at Cytochrome P450 2C19 (read-out: AC50) was 15.8 µM (inconclusive). As to `CCCC[C@]1(C2CCCC2)Cc2cc(OCC(=O)O)c(Cl)c(Cl)c2C1=O`, the AC50 at Cytochrome P450 3A4 was 10 µM (inconclusive). Consider `CC(C)c1ccccc1[S+]([O-])c1ccccc1C(C)(C)O` (centres undefined), for which the AC50 is 3.16 µM (inconclusive) at Cytochrome P450 2C19 (read-out: AC50) and 3.98 µM (inconclusive) on Cytochrome P450 3A4.

Take `COC(=O)C1=CN(c2cc(C)cc(C)c2)C=C(C(=O)OC)C1c1cccc(F)c1`: the EC50 in data set [1] was > 60 µM (not active); in data set [2] it was 3.09 µM (active). On the same counts, the results for `CCOC(=O)c1c(NC(=O)COC(=O)c2ccccc2NC)sc(C(=O)N(C)C)c1C` are > 60 µM (not active) and 0.75 µM (active). As for `CCOC(=O)c1ccc(Nc2nc(C(=O)OCC)nc3ccccc23)cc1`, the figures for the AC50 at Cytochrome P450 2C9 and on Cytochrome P450 3A4 were 3.55 µM (inconclusive) and 35.5 µM (inconclusive), respectively. Take `COC(=O)[C@@]1(Cc2ccc(F)cc2)[C@H]2c3cc(C(=O)N(C)C)n(Cc4ccc(S(C)(=O)=O)cc4)c3C[C@H]2CN1C(=O)c1ccccc1`: the AC50 at Cytochrome P450 1A2 is 25.1 µM (inconclusive); at Cytochrome P450 2C9, 15.8 µM (inconclusive). Turning to `COc1ccc(C(=O)NCS(=O)(=O)c2ccc(C)cc2)cc1`, on Cytochrome P450 1A2, the half-maximal activity concentration (AC50) is 15.8 µM (inconclusive).

As to `O=C(Nc1ccc(F)cc1)NC1CCN(Cc2ccccc2)CC1`, the EC50 in data set [1] is > 60 µM (not active); in data set [2], 0.476 µM (active). For the molecule `COC(=O)[C@@H]1CC[C@H](C)[C@@H](c2ccc(C)cc2)N1C(=O)c1ccc(/C=N\OC[C@@H](O)[C@H]2O[C@H]3OC(C)(C)O[C@H]3[C@@H]2O)cc1`, the half-maximal activity concentration (AC50) on Cytochrome P450 3A4 was 6.31 µM (inconclusive). `CCN1CCN(c2nc(-c3ccccn3)nc3ccccc23)CC1`: at Cytochrome P450 2C19 (read-out: AC50), the AC50 is 39.8 µM (inconclusive). On to `Cc1noc(NC(=O)Nc2ccccc2F)c1C#N`, for which the AC50 at Cytochrome P450 1A2 is 0.794 µM (inconclusive). For the molecule `O=C(c1cc(COc2ccc(F)cc2Cl)on1)N(Cc1ccncc1)CC1CCCO1` (centres undefined), the EC50 is > 60 µM (not active) in data set [1] and 0.956 µM (active) in data set [2]. Take `Cn1c(=O)c2c(nc(N/N=C\c3ccccc3C(=O)O)n2C)n(C)c1=O`: the AC50 entry on Cytochrome P450 2C19 is given as “inconclusive”. `CCCC1(C(=O)OC)C=C2C(=C(C(C)C)C(=O)C2C)CN1` (centres undefined): the results for the AC50 on Cytochrome P450 2C9 and on Cytochrome P450 3A4 were 20 µM (inconclusive) and 12.6 µM (inconclusive), respectively. Turning to `CCCC(C)C(=O)Nc1ncc(S(=O)(=O)c2ccc([N+](=O)[O-])cc2)s1` (centres undefined), the EC50 was > 60 µM (not active) in data set [1] and 2.25 µM (active) in data set [2].

Consider `O=C(CSc1ncnc2c1cnn2CCc1ccccc1)Nc1ccc(F)cc1`, for which the AC50 at Cytochrome P450 3A4 is 1.41 µM (inconclusive). In the case of `CCOc1ccc2nc(NC(=O)C3CCN(c4cnccn4)CC3)sc2c1`, the results for the EC50 in data set [1] and in data set [2] were > 60 µM (not active) and 2.48 µM (active), respectively. `C[C@@H](c1ccccc1)N1C(=O)[C@H]2[C@H]3[C@H](O)[C@H](O)C/C(=N/OCc4ccccc4)[C@@H]3CC[C@@H]2C1=O`: the AC50 at Cytochrome P450 3A4 is 5.01 µM (inconclusive). Still for that read-out and setting: under `CCN(C(S)=Nc1ccccc1F)C1CCCCC1` stands 14.1 µM (inconclusive). With `CN(C)C(=O)CSC1c2ccccc2C(=O)N1c1ccccc1` (centres undefined), the AC50 at Cytochrome P450 2C9 is 35.5 µM (inconclusive); at Cytochrome P450 3A4 it was 15.8 µM (inconclusive). For `CCC(C(=O)N1CCOCC1)n1c(C(=O)OC)cc2occc21` (centres undefined), in that order: 10 µM (inconclusive) and 14.1 µM (inconclusive).

Take `O=C(OCc1ccccc1)/C(=C/c1ccc(Cl)cc1)NC(=O)c1ccccc1Cl`: the AC50 is 0.316 µM (inconclusive) at Cytochrome P450 2C19 (read-out: AC50) and 1.58 µM (inconclusive) on Cytochrome P450 2C9. In the case of `COc1ccc(-c2nc3cnc(N4CCOCC4)nc3n(-c3ccc(OC)cc3)c2=O)cc1`, the AC50 on Cytochrome P450 1A2 is 10 µM (inconclusive).

On to `N#Cc1cccc(-c2nc3cnc(N4CCOCC4)nc3n(C3CC3)c2=O)c1`, for which, at Cytochrome P450 3A4, the AC50 was 39.8 µM (inconclusive).

In the case of `Oc1ccc(-c2nccc(-c3ccc(Cl)cc3Cl)n2)cc1`, the EC50 was > 60 µM (not active) in data set [1] and 1.62 µM (active) in data set [2].

Regarding `CN1CCN(S(=O)(=O)c2cnccc2N2CCN(c3cccc(Cl)c3)CC2)CC1`, the concentration giving a half-maximal response (EC50) in data set [1] is > 60 µM (inconclusive); in data set [2] it was 1 µM (active). On the same counts, the results for `CCN(CC1CCCN(CCc2cccc(OC)c2)C1)C(=O)c1ccc(COC)o1` (centres undefined) are 30.9 µM (active) and 0.445 µM (active). In the case of `COc1cccc(C2=NOC(C(=O)NCc3ccccc3)C2)c1` (centres undefined), the AC50 on Cytochrome P450 3A4 is 25.1 µM (inconclusive). The same measure, in the same setting: under `COc1ccc(COC(=O)N/N=C2/C[C@@H](O)[C@@H](O)[C@@H]3[C@@H]4C(=O)N([C@@H](C)c5ccccc5)C(=O)[C@H]4CC[C@H]23)cc1` stands 3.98 µM (inconclusive); under `COCCn1c(=O)c(-c2cc(F)cc(F)c2)nc2cnc(N3CCNCC3)nc21`, 20 µM (inconclusive). For the molecule `CC(C)CCNC(=O)C(c1cccnc1)N(Cc1ccccc1)C(=O)Cn1nnc2ccccc21` (centres undefined), the EC50 in data set [1] was > 30 µM (not active); in data set [2], 0.959 µM (active). Turning to `CCN(CC)C(=O)CSc1nc(O)cc(=O)n1CC`, on Cytochrome P450 3A4, the AC50 is 14.1 µM (inconclusive). As to `COc1ccc2[nH]cc(CCNc3cc(-c4ccc(C(=O)N(C)C)cc4)ncn3)c2c1`, the AC50 at Cytochrome P450 2C19 (read-out: AC50) was 39.8 µM (inconclusive). Turning to `CCN(CC)C(=O)c1sc2[nH]c(=S)n(-c3ccccc3)c(=O)c2c1C`, the AC50 entry on Cytochrome P450 2C19 is “inconclusive”; on Cytochrome P450 2C9, 8.91 µM (inconclusive). With `c1ccc(NN(Cc2cnccn2)c2ccccc2)cc1`, the AC50 on Cytochrome P450 3A4 was 1 µM (inconclusive). On the same count and under the same terms, under `CO[C@@H]1COC(=O)[C@H]2CCCN2C(=O)[C@@H](C)COC(=O)[C@H](COCc2ccccc2)NC(=O)C/C=C\[C@H]1C` stands 3.98 µM (inconclusive); under `COC(=O)[C@@H]1CC[C@H](C)[C@@H](c2ccc(C)cc2)N1C(=O)c1ccc(/C=N\OC[C@@H]2O[C@H](c3ccccc3)C=C[C@@H]2Oc2ccc(OC)cc2)cc1`, 3.16 µM (inconclusive). Regarding `Cc1ccccc1C(=O)NC(NCc1ccco1)C(Cl)(Cl)Cl` (centres undefined), the AC50 on Cytochrome P450 1A2 is 14.1 µM (inconclusive); on Cytochrome P450 2C9 it was 0.0398 µM (inconclusive); on Cytochrome P450 3A4 it was 25.1 µM (inconclusive). In the case of `CCC(=O)Nc1ccc(NC(=O)CSc2nnnn2-c2cccnc2)cc1C`, at Cytochrome P450 2C19, the AC50 entry is reported as “inconclusive”. Consider `N[C@@H](Cn1cc(I)c(=O)n(Cc2ccc(C(=O)O)cc2)c1=O)C(=O)O`, for which the concentration at half-maximal activity (AC50) was 31.6 µM (inconclusive) at Cytochrome P450 1A2 and 39.8 µM (inconclusive) at Cytochrome P450 2C19 (read-out: AC50). Regarding `CSC(=N)N/N=C/c1ccc([N+](=O)[O-])cc1`, on Cytochrome P450 2C9, the AC50 is 10 µM (inconclusive). On to `C=C(C)[C@H]1CC=C(C)/C(=N/NC(=O)CNc2ccccc2OC)C1`, for which the AC50 at Cytochrome P450 2C19 (read-out: AC50) was 11.2 µM (inconclusive).

For the molecule `O=C(CC(=O)N/N=C\c1c(Cl)cccc1Cl)NCc1ccccc1`, the AC50 on Cytochrome P450 1A2 is 14.1 µM (inconclusive); on Cytochrome P450 3A4 it was 12.6 µM (inconclusive).

For `CCn1c(=O)[nH]c2ccccc21`, the AC50 at Cytochrome P450 1A2 is 31.6 µM (inconclusive).

Take `CCCCCCCCCCCCCCSCC(=O)O` [TETRADECYLTHIOACETIC ACID]: the AC50 on Cytochrome P450 2C9 is 39.8 µM (inconclusive).
